pIC50: −log10 of the molar value.

This passage reports IC50 results from paper PMC6035176, “Chemo-manipulation of tumor blood vessels by a metal-based anticancer complex enhances antitumor therapy” (Scientific Reports, 2018).

The target of this assay is T1, Poly(ADP-Ribose) Polymerase type 1 (PARP-1) (Homo sapiens, UniProt P09874).
T1 construct: gene PARP1
Nature of the assay: in vitro colorimetric PARP-1 activity assay. The format is biochemical.

T1 sequence (P09874 2-1014): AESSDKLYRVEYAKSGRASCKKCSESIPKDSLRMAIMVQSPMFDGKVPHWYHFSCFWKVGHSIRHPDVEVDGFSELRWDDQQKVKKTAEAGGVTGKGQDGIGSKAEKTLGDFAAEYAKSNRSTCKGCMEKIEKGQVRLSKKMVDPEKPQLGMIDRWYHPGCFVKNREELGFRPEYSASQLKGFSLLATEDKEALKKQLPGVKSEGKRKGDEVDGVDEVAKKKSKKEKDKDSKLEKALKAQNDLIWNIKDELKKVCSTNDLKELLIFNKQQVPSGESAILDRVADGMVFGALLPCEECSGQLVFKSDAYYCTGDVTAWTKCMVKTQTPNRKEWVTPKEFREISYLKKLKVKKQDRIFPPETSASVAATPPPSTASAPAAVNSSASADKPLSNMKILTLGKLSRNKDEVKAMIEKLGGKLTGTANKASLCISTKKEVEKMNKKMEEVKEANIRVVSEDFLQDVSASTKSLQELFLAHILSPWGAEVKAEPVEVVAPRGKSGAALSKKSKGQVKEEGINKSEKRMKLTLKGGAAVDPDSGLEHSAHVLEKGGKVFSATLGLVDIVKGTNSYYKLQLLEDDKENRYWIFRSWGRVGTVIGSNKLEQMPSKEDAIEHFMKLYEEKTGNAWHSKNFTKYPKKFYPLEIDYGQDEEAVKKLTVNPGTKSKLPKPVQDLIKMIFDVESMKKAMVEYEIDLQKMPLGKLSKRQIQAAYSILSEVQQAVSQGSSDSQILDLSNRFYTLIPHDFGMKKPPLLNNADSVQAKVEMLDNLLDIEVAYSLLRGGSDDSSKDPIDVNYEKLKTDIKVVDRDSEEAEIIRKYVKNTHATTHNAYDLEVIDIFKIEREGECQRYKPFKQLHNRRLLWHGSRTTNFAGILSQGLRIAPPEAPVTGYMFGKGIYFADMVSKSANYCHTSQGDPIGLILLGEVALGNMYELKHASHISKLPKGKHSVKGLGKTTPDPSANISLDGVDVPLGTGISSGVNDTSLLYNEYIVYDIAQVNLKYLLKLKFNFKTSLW

On to RAPTA-T, for which the pIC50 is 3.40.
